# Results taken from PubChem BioAssay (NCI).
# Values joined by “and” are separate entries in the source; they are usually repeats but may differ in a detail not shown here. Equal entries are not always repeated.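 48-hour exposure; five concentrations; linearly interpolated endpoints. GI50 = concentration required for 50% inhibition of growth. TGI denotes the concentration required for complete inhibition of growth.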
# What was measured:
# Test in all cases: NCI anticancer screen, dose series, 48 h
# [1] = system: SF-295 CNS
# [2] = system: OVCAR-4 ovarian
# [3] = system: RPMI-8226 leukemia
# [4] = system: OVCAR-5 ovarian
# [5] = system: SK-MEL-5 melanoma
# [6] = system: UACC-62 melanoma
# [7] = system: LOX IMVI melanoma
# [8] = system: SK-MEL-2 melanoma
# [9] = system: SR leukemia
# [10] = system: EKVX NSCLC
SMILES,TGI [1],TGI [2],TGI [3],TGI [4],TGI [5],TGI [6],TGI [7],TGI [8],TGI [9],TGI [10],GI50 [1],GI50 [2],GI50 [3],GI50 [10],GI50 [4],GI50 [5],GI50 [6],GI50 [7],GI50 [8],GI50 [9]
CCCCCCCCCCCCCCCCCC(=O)OCC1OC(OC)C(NC(=O)N(CCCl)N=O)C(O)C1O (configuration not stated),32.6 µM,76.1 µM,85.8 µM,> 100 µM,> 100 µM,23.3 µM,31.8 µM,> 100 µM,> 100 µM,,,,,,,,,,,
CCOC(=O)C12CC(C)=C(C)CC1CCCc1ccccc12 (configuration not stated),86.3 µM,> 100 µM,34.2 µM,50.9 µM,37.5 µM,> 100 µM,30.8 µM,31.6 µM,84.4 µM,49.5 µM,,,,,,,,,,
Cc1cc2c(cc1Cl)SC(c1ccccc1O)NS2(=O)=O (configuration not stated),> 100 µM,> 100 µM,,> 100 µM,> 100 µM,> 100 µM,> 100 µM,> 100 µM,77.3 µM,> 100 µM,,,,,,,,,,
Cn1c(=O)ccc2c(=O)c3ccccc3oc21,> 100 µM,> 100 µM,,> 100 µM,> 100 µM,> 100 µM,> 100 µM,> 100 µM,> 100 µM,> 100 µM,,,,,,,,,,
O=C([CH-]C(=O)c1ccccc1)c1ccccc1.O=C([CH-]C(=O)c1ccccc1)c1ccccc1.O=C([CH-]C(=O)c1ccccc1)c1ccccc1.[Cl-].[Hf+4],> 100 µM,> 100 µM,82.1 µM,> 100 µM,31.5 µM,> 100 µM,> 100 µM,,,77.2 µM,14900 nM,14600 nM,13500 nM,24800 nM,30.8 µM,11100 nM,14.6 µM,23.3 µM,,
O=C(CSSCC(=O)OCCS(=O)(=O)Nc1ccc(Br)cc1)OCCS(=O)(=O)Nc1ccc(Br)cc1,> 100 µM,33 µM,83.7 µM,84.7 µM,26 µM,34.6 µM,42.3 µM,79.6 µM,,> 100 µM,,,,,,,,,,
Cc1cn(Cc2cn(CC3OC(n4cc(C)c(=O)[nH]c4=O)CC3O)nn2)c(=O)[nH]c1=O (configuration not stated),> 100 µM,> 100 µM,> 100 µM,> 100 µM,> 100 µM,> 100 µM,,> 100 µM,,> 100 µM,,,,,,,,,,
N=C(N)c1ccc(N=Nc2c(O)ccc3cc4c(N=Nc5ccc(C(=N)N)cc5)c(O)ccc4cc23)cc1,> 100 µM,> 100 µM,> 100 µM,> 100 µM,> 100 µM,> 100 µM,,> 100 µM,> 100 µM,> 100 µM,,,,,,,,,,
CC(C)(C)c1cc(-c2nc3ccc(N4CCN(CCO)CC4)cc3[nH]2)cc(C(C)(C)C)c1O,,,,,3.14 µM,3.22 µM,3.43 µM,5.73 µM,> 100 µM,,,,,,,1740 nM,1.73 µM,1.86 µM,2390 nM,2770 nM
CCCC[C@H]1C(=O)O[C@H](C)[C@H](NC(=O)c2cccc(NC=O)c2OC)C(=O)O[C@@H](C)[C@@H]1OC(=O)CC(C)C (tested in a mixture with another compound),30.3 µM,21.1 µM,28.2 µM,51.6 µM,27.7 µM,18.5 µM,23.2 µM,29 µM,50.5 µM,31.3 µM,,,,,,,,,,
COc1cc(C2C(=O)C(Cl)N2Nc2nc(C)cc(=O)[nH]2)cc(OC)c1OC (configuration not stated),,56.2 µM,,> 100 µM,26.5 µM,,27.5 µM,25.2 µM,77.1 µM,> 100 µM,,,,,,,,,,
O=C(NC(Cc1ccc(Cl)cc1)C(=O)O)c1ccc(I)cc1 (configuration not stated),> 100 µM,> 100 µM,> 100 µM,> 100 µM,> 100 µM,> 100 µM,> 100 µM,> 100 µM,,,,,,,,,,,,
Cc1ccc2c3c1[C@@H]1O[C@@H]1c1cccc(c1-3)[C@@H]1O[C@H]21,31.4 µM,33.3 µM,,34 µM,30.6 µM,40.2 µM,7.38 µM,33.7 µM,59.3 µM,32.3 µM,,,,,,,,,,
COc1ccc(N=Nc2c(N)nn(C)c2N)cc1,> 100 µM,> 100 µM,> 100 µM,> 100 µM,> 100 µM,> 100 µM,> 100 µM,> 100 µM,> 100 µM,> 100 µM,,,,,,,,,,
C/C(=C\C(=N\NC(=N)N)c1ccccc1)c1ccccc1,1.87 µM,3.16 µM,8.41 µM,3.35 µM,0.76 µM,3.23 µM,2.56 µM,,6.59 µM,,,,,,,,,,,
O=c1[nH]c(=O)n(CCOCP(=O)(O)O)nc1Br,,,> 100 µM,> 100 µM,> 100 µM,,> 100 µM,> 100 µM,> 100 µM,> 100 µM,,,,,,,,,,

SMILES,TGI [1],TGI [2],TGI [3],TGI [4],TGI [5],TGI [6],TGI [7],TGI [8],TGI [9],TGI [10],GI50 [1],GI50 [2],GI50 [3],GI50 [10],GI50 [4],GI50 [5],GI50 [6],GI50 [7],GI50 [8],GI50 [9]
Cc1cc(=O)n2c3c(c4c(cc13)c(CN(C)C)cc(=O)n4C)OC2,> 72.7 µM,> 77.9 µM,> 100 µM,> 77 µM,45.1 µM,30.1 µM,> 100 µM,41.6 µM,> 100 µM,> 58.2 µM,,,,,,,,,,
O=c1[nH]c2cc([N+](=O)[O-])c(N/N=C/c3ccc(Cl)cc3Cl)c([N+](=O)[O-])c2[nH]1,> 100 µM,94.6 µM,> 100 µM,> 100 µM,> 100 µM,> 100 µM,> 100 µM,> 100 µM,,> 100 µM,,,,,,,,,,
O=S(=O)(O)c1ccc2c(N=Nc3ccccc3)c(O)ccc2c1,> 100 µM,> 100 µM,> 100 µM,> 100 µM,> 100 µM,> 100 µM,> 100 µM,> 100 µM,> 100 µM,> 100 µM,,,,,,,,,,
Cc1ccc(C(=O)Nc2ncn(C3CC(O)C(CO)O3)c(=O)n2)cc1 (configuration not stated),> 100 µM,> 100 µM,> 100 µM,> 100 µM,> 100 µM,> 100 µM,> 100 µM,> 100 µM,,> 100 µM,,,,,,,,,,
CCCCCCCCCCCCSC(=S)c1c(C)[nH]n(CCCCCCCCCCCC)c1=O,> 100 µM,> 100 µM,> 100 µM,> 100 µM,> 100 µM,> 100 µM,> 100 µM,> 100 µM,> 100 µM,81.1 µM,,,,,,,,,,
COC(=O)c1ccc2c(c1)sc1nc(-c3ccc(OC)cc3)cn12,> 100 µM,> 100 µM,> 100 µM,> 100 µM,53.6 µM,> 100 µM,> 100 µM,> 100 µM,,> 100 µM,,,,,,,,,,
COc1cccc(NC(=O)CC(=O)NN2C(=O)/C(=C/c3ccc(N(CCC#N)CCC#N)cc3)N=C2c2cc([N+](=O)[O-])ccc2Cl)c1,> 100 µM,> 100 µM,> 100 µM,72.3 µM,> 100 µM,> 100 µM,> 100 µM,> 100 µM,> 100 µM,> 100 µM,,,,,,,,,,
N#Cc1c(-c2ccc(Cl)cc2)c2c([nH]c1=O)-c1cc([N+](=O)[O-])ccc1CCC2,45.3 µM,> 100 µM,> 100 µM,37.6 µM,40.7 µM,32.4 µM,37.9 µM,43.4 µM,> 100 µM,51.2 µM,,,,,,,,,,
C=C1CC2C3C=C(C)C4=CC(=O)CC[C@]4(C)C3CC[C@]2(C)[C@@]1(OC(C)=O)C(C)=O (some centres not stated),,> 100 µM,5.6 µM,> 100 µM,,> 100 µM,,> 100 µM,> 100 µM,> 100 µM,,2910 nM,1250 nM,2100 nM,> 100 µM,,3.38 µM,,> 100000 nM,3190 nM
COc1ccc2c(c1)CCCc1c-2nc2ccccc2c1N,23.1 µM,27.3 µM,27.3 µM,23.9 µM,15.1 µM,25.4 µM,20.9 µM,29.1 µM,6.32 µM,22.2 µM,,,,,,,,,,
Cn1c2cn[nH]c(=O)c2c2ccc3ccccc3c21,63.4 µM,> 100 µM,> 100 µM,> 100 µM,> 100 µM,> 100 µM,53.8 µM,46.7 µM,> 100 µM,75.3 µM,,,,,,,,,,
COP(=O)(OC)[C@H](O)[C@H]1C[C@@H]1c1ccccc1,> 100 µM,> 100 µM,> 100 µM,> 100 µM,> 100 µM,> 100 µM,> 100 µM,> 100 µM,,> 100 µM,,,,,,,,,,
COc1ccc(N=Cc2ccc(N(CCC#N)S(=O)(=O)c3ccccc3)cc2C)cc1,> 100 µM,> 100 µM,> 100 µM,> 100 µM,> 100 µM,> 100 µM,,67.8 µM,> 100 µM,> 100 µM,,,,,,,,,,
C[C@H]1CCC/C=C/[C@@H]2C[C@H](O)C[C@H]2[C@H](O)/C=C/C(=O)O1,,5.62 µM and > 49.1 µM,,,< 0.01 µM and 0.0127 µM and 0.0164 µM,,0.0412 µM and 0.0275 µM,,,,< 18.1 nM and 52.4 nM and 120 nM,31.2 nM,34.5 nM and 73.7 nM and 110 nM,< 16.4 nM and 54.4 nM and 44.7 nM,0.0857 µM,< 12.2 nM,,,,< 14.6 nM and 80.8 nM and 41.5 nM
O=C(O)CCCN=C(C1=C(O)C(=O)N(c2ccccc2)C1=O)c1ccccc1,> 100 µM,> 100 µM,> 100 µM,> 100 µM,> 100 µM,> 100 µM,> 100 µM,> 100 µM,64.9 µM,> 100 µM,,,,,,,,,,
CCN(CCO)CCNc1ccc(C)c2sc3ccccc3c(=O)c12,10.1 µM,21.7 µM,20.3 µM,12.5 µM,7.66 µM,3.34 µM,5.18 µM,9.33 µM,> 22.4 µM,26.8 µM,,,,,,,,,,
